Experimental findings from paper PMC6167350, “Small-molecule AgrA inhibitors F12 and F19 act as antivirulence agents against Gram-positive pathogens” (Scientific Reports, 2018) are described below.

The target in test [1] is T1, AgrA (C-terminal DNA-binding domain, AgrA_C) (Staphylococcus aureus, UniProt P0A0I7, C199S).
T1 sequence (P0A0I7 143-238 C199S): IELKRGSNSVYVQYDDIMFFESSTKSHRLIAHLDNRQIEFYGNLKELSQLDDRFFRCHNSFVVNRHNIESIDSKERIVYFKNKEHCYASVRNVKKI
Kind of test: microscale thermophoresis (Alexa Fluor 647-labeled protein). For orientation: In MST a laser heats a spot of the sample, and binding alters the fluorescence response.

Test [2] concerns the target AgrA (C-terminal DNA-binding domain, AgrA_C) (Staphylococcus epidermidis, UniProt Q8CNM5). Kind of test: microscale thermophoresis; also EMSA (F19 blocks P3 DNA binding).

Compound `CCCCCCc1cc(C(=O)COc2ccc(F)cc2F)c(O)cc1O` [F12] displayed a Kd in test [1] of 4.5 ± 0.4 µM.

As to `CCCCCCc1cc(C(=O)COc2ccc(C(C)C)cc2)c(O)cc1O` [F19], the Kd in test [1] was 2.9 ± 0.4 µM; in test [2], 2700 ± 700 nM.

Broadly, the Kd is the constant that tells how readily two partners part at equilibrium. A high value points to a looser complex.
